Results from patent US8192962B2, “Processes for detecting toxic substances” (Daikin Industries, Ltd., priority 2001, dated 2012).

Test system: Metabolism protein genes
Experiment: DNA chip mRNA expression in yeast, metabolism protein genes (Table 7)
Type: cell-based, Saccharomyces cerevisiae S288C
Method in brief: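 Measured as treated-to-untreated fluorescence ratio on a full-genome yeast DNA chip. Cells (S288C, YPD, 25° C.) were exposed in log phase for two hours to one chemical, dosed to curb growth without killing.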

## Oc1cc(Cl)c(Cl)cc1Cl [(6), 2,4,5-trichlorophenol]
Yeast gene YAL012W
  The level of expressed mRNA in the presence of chemical substance/The level of expressed mRNA in the absence of chemical substance: 1.6
Yeast gene YAL038W
  The level of expressed mRNA in the presence of chemical substance/The level of expressed mRNA in the absence of chemical substance: 1.3
Yeast gene YBL001C
  The level of expressed mRNA in the presence of chemical substance/The level of expressed mRNA in the absence of chemical substance: 2.4
Yeast gene YBR003W
  level of expressed mRNA in the presence/in the absence of chemical substance: 1.2
Yeast gene YBR011C
  level of expressed mRNA in the presence/in the absence of chemical substance: 2.0
Yeast gene YBR020W
  level of expressed mRNA in the presence/in the absence of chemical substance: 0.8
Yeast gene YBR023C
  The level of expressed mRNA in the presence of chemical substance/The level of expressed mRNA in the absence of chemical substance: 0.5
Yeast gene YBR029C
  The level of expressed mRNA in the presence of chemical substance/The level of expressed mRNA in the absence of chemical substance: 0.8
Yeast gene YBR111C
  The level of expressed mRNA in the presence of chemical substance/The level of expressed mRNA in the absence of chemical substance: 3.0
Yeast gene YBR183W
  The level of expressed mRNA in the presence of chemical substance/The level of expressed mRNA in the absence of chemical substance: 2.5
Yeast gene YBR222C
  The level of expressed mRNA in the presence of chemical substance/The level of expressed mRNA in the absence of chemical substance: 1.3
Yeast gene YBR256C
  The level of expressed mRNA in the presence of chemical substance/The level of expressed mRNA in the absence of chemical substance: 2.0
Yeast gene YCL009C
  The level of expressed mRNA in the presence of chemical substance/The level of expressed mRNA in the absence of chemical substance: 1.8
Yeast gene YCL064C
  The level of expressed mRNA in the presence of chemical substance/The level of expressed mRNA in the absence of chemical substance: 3.3
Yeast gene YCR010C
  level of expressed mRNA in the presence/in the absence of chemical substance: 1.3
Yeast gene YCR034W
  level of expressed mRNA in the presence/in the absence of chemical substance: 0.3
Yeast gene YCR048W
  The level of expressed mRNA in the presence of chemical substance/The level of expressed mRNA in the absence of chemical substance: 0.2
Yeast gene YCR098C
  The level of expressed mRNA in the presence of chemical substance/The level of expressed mRNA in the absence of chemical substance: 1.6
Yeast gene YDR009W
  The level of expressed mRNA in the presence of chemical substance/The level of expressed mRNA in the absence of chemical substance: 2.4
Yeast gene YDR019C
  The level of expressed mRNA in the presence of chemical substance/The level of expressed mRNA in the absence of chemical substance: 4.8
Yeast gene YDR050C
  level of expressed mRNA in the presence/in the absence of chemical substance: 1.7
Yeast gene YDR073W
  level of expressed mRNA in the presence/in the absence of chemical substance: 1.3
Yeast gene YDR123C
  level of expressed mRNA in the presence/in the absence of chemical substance: 0.7
Yeast gene YDR178W
  level of expressed mRNA in the presence/in the absence of chemical substance: 2.1
Yeast gene YDR277C
  level of expressed mRNA in the presence/in the absence of chemical substance: 1.1
Yeast gene YDR284C
  level of expressed mRNA in the presence/in the absence of chemical substance: 1.8
Yeast gene YDR345C
  level of expressed mRNA in the presence/in the absence of chemical substance: 1.2
Yeast gene YDR380W
  The level of expressed mRNA in the presence of chemical substance/The level of expressed mRNA in the absence of chemical substance: 0.4
Yeast gene YDR400W
  level of expressed mRNA in the presence/in the absence of chemical substance: 1.1
Yeast gene YDR408C
  level of expressed mRNA in the presence/in the absence of chemical substance: 0.9
Yeast gene YDR483W
  level of expressed mRNA in the presence/in the absence of chemical substance: 1.5
Yeast gene YDR497C
  The level of expressed mRNA in the presence of chemical substance/The level of expressed mRNA in the absence of chemical substance: 0.6
Yeast gene YDR502C
  The level of expressed mRNA in the presence of chemical substance/The level of expressed mRNA in the absence of chemical substance: 1.5
Yeast gene YDR516C
  The level of expressed mRNA in the presence of chemical substance/The level of expressed mRNA in the absence of chemical substance: 1.8
Yeast gene YEL063C
  level of expressed mRNA in the presence/in the absence of chemical substance: 1.3
Yeast gene YER014W
  The level of expressed mRNA in the presence of chemical substance/The level of expressed mRNA in the absence of chemical substance: 4.0
Yeast gene YER015W
  level of expressed mRNA in the presence/in the absence of chemical substance: 0.9
Yeast gene YER026C
  The level of expressed mRNA in the presence of chemical substance/The level of expressed mRNA in the absence of chemical substance: 2.5
Yeast gene YER053C
  The level of expressed mRNA in the presence of chemical substance/The level of expressed mRNA in the absence of chemical substance: 2.8
Yeast gene YER069W
  The level of expressed mRNA in the presence of chemical substance/The level of expressed mRNA in the absence of chemical substance: 1.3
Yeast gene YER081W
  level of expressed mRNA in the presence/in the absence of chemical substance: 1.1
Yeast gene YER096W
  The level of expressed mRNA in the presence of chemical substance/The level of expressed mRNA in the absence of chemical substance: 1.2
Yeast gene YER120W
  level of expressed mRNA in the presence/in the absence of chemical substance: 1.5
Yeast gene YER178W
  The level of expressed mRNA in the presence of chemical substance/The level of expressed mRNA in the absence of chemical substance: 2.5
Yeast gene YFL011W
  level of expressed mRNA in the presence/in the absence of chemical substance: 1.0
Yeast gene YFL014W
  The level of expressed mRNA in the presence of chemical substance/The level of expressed mRNA in the absence of chemical substance: 9.3
Yeast gene YFL030W
  The level of expressed mRNA in the presence of chemical substance/The level of expressed mRNA in the absence of chemical substance: 1.3
Yeast gene YFL031W
  The level of expressed mRNA in the presence of chemical substance/The level of expressed mRNA in the absence of chemical substance: 0.3
Yeast gene YFL056C
  The level of expressed mRNA in the presence of chemical substance/The level of expressed mRNA in the absence of chemical substance: 0.6
Yeast gene YFL057C
  The level of expressed mRNA in the presence of chemical substance/The level of expressed mRNA in the absence of chemical substance: 1.2
Yeast gene YFR047C
  The level of expressed mRNA in the presence of chemical substance/The level of expressed mRNA in the absence of chemical substance: 2.0
Yeast gene YGL012W
  level of expressed mRNA in the presence/in the absence of chemical substance: 1.6
Yeast gene YGL022W
  The level of expressed mRNA in the presence of chemical substance/The level of expressed mRNA in the absence of chemical substance: 0.9
Yeast gene YGL115W
  level of expressed mRNA in the presence/in the absence of chemical substance: 1.2
Yeast gene YGL126W
  The level of expressed mRNA in the presence of chemical substance/The level of expressed mRNA in the absence of chemical substance: 1.6
Yeast gene YGL205W
  level of expressed mRNA in the presence/in the absence of chemical substance: 1.6
Yeast gene YGL209W
  The level of expressed mRNA in the presence of chemical substance/The level of expressed mRNA in the absence of chemical substance: 1.0
Yeast gene YGL248W
  The level of expressed mRNA in the presence of chemical substance/The level of expressed mRNA in the absence of chemical substance: 2.7
Yeast gene YGL253W
  The level of expressed mRNA in the presence of chemical substance/The level of expressed mRNA in the absence of chemical substance: 2.4
Yeast gene YGR037C
  The level of expressed mRNA in the presence of chemical substance/The level of expressed mRNA in the absence of chemical substance: 1.1
Yeast gene YGR055W
  The level of expressed mRNA in the presence of chemical substance/The level of expressed mRNA in the absence of chemical substance: 1.1
Yeast gene YGR096W
  level of expressed mRNA in the presence/in the absence of chemical substance: 1.7
Yeast gene YGR191W
  level of expressed mRNA in the presence/in the absence of chemical substance: 1.1
Yeast gene YGR194C
  The level of expressed mRNA in the presence of chemical substance/The level of expressed mRNA in the absence of chemical substance: 1.9
Yeast gene YGR204W
  level of expressed mRNA in the presence/in the absence of chemical substance: 0.6
Yeast gene YGR244C
  The level of expressed mRNA in the presence of chemical substance/The level of expressed mRNA in the absence of chemical substance: 2.6
Yeast gene YGR256W
  The level of expressed mRNA in the presence of chemical substance/The level of expressed mRNA in the absence of chemical substance: 6.2
Yeast gene YGR282C
  The level of expressed mRNA in the presence of chemical substance/The level of expressed mRNA in the absence of chemical substance: 2.2
Yeast gene YHR025W
  level of expressed mRNA in the presence/in the absence of chemical substance: 0.8
Yeast gene YHR111W
  The level of expressed mRNA in the presence of chemical substance/The level of expressed mRNA in the absence of chemical substance: 1.3
Yeast gene YHR123W
  level of expressed mRNA in the presence/in the absence of chemical substance: 1.0
Yeast gene YHR137W
  The level of expressed mRNA in the presence of chemical substance/The level of expressed mRNA in the absence of chemical substance: 0.7
Yeast gene YHR174W
  The level of expressed mRNA in the presence of chemical substance/The level of expressed mRNA in the absence of chemical substance: 1.5
Yeast gene YHR176W
  The level of expressed mRNA in the presence of chemical substance/The level of expressed mRNA in the absence of chemical substance: 2.3
Yeast gene YHR210C
  level of expressed mRNA in the presence/in the absence of chemical substance: 0.7
Yeast gene YIL006W
  level of expressed mRNA in the presence/in the absence of chemical substance: 0.3
Yeast gene YIL045W
  The level of expressed mRNA in the presence of chemical substance/The level of expressed mRNA in the absence of chemical substance: 1.7
Yeast gene YIL107C
  The level of expressed mRNA in the presence of chemical substance/The level of expressed mRNA in the absence of chemical substance: 1.0
Yeast gene YIL154C
  The level of expressed mRNA in the presence of chemical substance/The level of expressed mRNA in the absence of chemical substance: 1.1
Yeast gene YIL155C
  The level of expressed mRNA in the presence of chemical substance/The level of expressed mRNA in the absence of chemical substance: 1.4
Yeast gene YIL167W
  The level of expressed mRNA in the presence of chemical substance/The level of expressed mRNA in the absence of chemical substance: 7.7
Yeast gene YIR034C
  The level of expressed mRNA in the presence of chemical substance/The level of expressed mRNA in the absence of chemical substance: 1.3
Yeast gene YIR036C
  The level of expressed mRNA in the presence of chemical substance/The level of expressed mRNA in the absence of chemical substance: 0.7
Yeast gene YJL031C
  The level of expressed mRNA in the presence of chemical substance/The level of expressed mRNA in the absence of chemical substance: 1.6
Yeast gene YJL068C
  The level of expressed mRNA in the presence of chemical substance/The level of expressed mRNA in the absence of chemical substance: 1.1
Yeast gene YJL088W
  The level of expressed mRNA in the presence of chemical substance/The level of expressed mRNA in the absence of chemical substance: 2.8
Yeast gene YJL099W
  The level of expressed mRNA in the presence of chemical substance/The level of expressed mRNA in the absence of chemical substance: 2.0
Yeast gene YJL121C
  level of expressed mRNA in the presence/in the absence of chemical substance: 1.1
Yeast gene YJL167W
  level of expressed mRNA in the presence/in the absence of chemical substance: 1.3
Yeast gene YJL172W
  The level of expressed mRNA in the presence of chemical substance/The level of expressed mRNA in the absence of chemical substance: 3.8
Yeast gene YJL219W
  The level of expressed mRNA in the presence of chemical substance/The level of expressed mRNA in the absence of chemical substance: 1.5
Yeast gene YJL221C
  The level of expressed mRNA in the presence of chemical substance/The level of expressed mRNA in the absence of chemical substance: 6.6
Yeast gene YJR077C
  level of expressed mRNA in the presence/in the absence of chemical substance: 0.9
Yeast gene YJR137C
  The level of expressed mRNA in the presence of chemical substance/The level of expressed mRNA in the absence of chemical substance: 1.5
Yeast gene YJR143C
  level of expressed mRNA in the presence/in the absence of chemical substance: 0.6
Yeast gene YJR148W
  The level of expressed mRNA in the presence of chemical substance/The level of expressed mRNA in the absence of chemical substance: 2.0
Yeast gene YJR155W
  The level of expressed mRNA in the presence of chemical substance/The level of expressed mRNA in the absence of chemical substance: 1.4
